Active and inactive are the calls of the source. The calls are words filed in the database; no cut-off is given here.
Experiments:
4T1 [1] = test: Anticancer activity against mouse 4T1 cells assessed as inhibition of cell growth incubated for 24 hrs by CCK-8 assay; type: functional, cell-based; details: 4T1, 24 h
4T1 [2] = test: Induction of apoptosis in mouse 4T1 cells assessed as caspase-3 activation at 10 uM incubated for 24 hrs by Western blot analysis; type: functional, cell-based
4T1 [3] = test: Induction of mitochondrial membrane potential loss in mouse 4T1 cells assessed as red fluorescence at 10 uM incubated for 24 hrs by JC-1 staining based flow cytometric analysis (Rvb= 87.9%); type: cell-based
[4] = Prodrug conversion in cell culture medium containing 10% FBS assessed as drug hydrolysis by measuring stachydrine release at 3 to 20 hrs; type: ADME; details: cattle; time 3-20 hrs
4T1 [5] = test: Induction of mitochondrial membrane potential loss in mouse 4T1 cells assessed as green fluorescence at 10 uM incubated for 24 hrs by JC-1 staining based flow cytometric analysis (reference value: 11.7%); type: cell-based
4T1 [6] = test: Anticancer activity against mouse 4T1 cells assessed as inhibition of cell growth incubated for 48 hrs by CCK-8 assay; type: functional, cell-based; details: 4T1, 48 h
4T1 [7] = test: Antitumor activity against mouse 4T1 cells implanted in BALB/c mouse assessed as change in tumor weight at 0.2 mmol/Kg, po administered once every day for 14 days; type: functional, organism-based; details: time 14.0 day
4T1 [8] = test: Induction of cell cycle arrest in mouse 4T1 cells assessed as accumulation of cells in G0/G1 phase at 10 uM incubated for 24 hrs by flow cytometry relative to control; type: functional
4T1 [9] = test: Antitumor activity against mouse 4T1 cells implanted in BALB/c mouse assessed as tumor cell shrinkage at 0.2 mmol/Kg, po administered once every day for 14 days by histological staining based analysis; type: functional, organism-based; details: time 14.0 day
4T1 [10] = test: Antitumor activity against mouse 4T1 cells implanted in BALB/c mouse assessed as tumor growth inhibition at 0.2 mmol/Kg, po administered once every day for 14 days relative to control; type: functional; details: 4T1, 336 h, time 14 day, read-out: TGI
[11] = Toxicity in BALB/c mouse implanted with mouse 4T1 cells assessed as blurred spleen morphology at 0.2 mmol/Kg, po administered once every day for 14 days; type: organism-based; details: in vivo, 336 h, time 14 day
4T1 [12] = test: Induction of apoptosis in mouse 4T1 cells assessed as apoptotic rate at 1.25 micromol/L incubated for 24 hrs by Annexin-V/PI staining based flow cytometry relative to control; type: functional; details: dose 1.25 µmol/L, at 1.25 µM
[13] = Toxicity in BALB/c mouse implanted with mouse 4T1 cells assessed as increase in spleen edema at 0.2 mmol/Kg, po administered once every day for 14 days relative to control; type: organism-based; details: in vivo, 336 h, time 14 day
4T1 [14] = test: Induction of apoptosis in mouse 4T1 cells assessed as increase in cleaved caspase-3 expression at 10 uM incubated for 24 hrs by Western blot analysis; type: functional, cell-based

## CCCCCCCCCCCCOC(=O)C1CCC[N+]1(C)C.[Cl-] (centres undefined)
4T1 [1]
  IC50: 24.7 µM
4T1 [2]
  Activity: Active
4T1 [3]
  Activity: 43.1%
[4]
  Drug metabolism: Metabolite_Detected
4T1 [5]
  Activity: 56.8%
4T1 [6]
  IC50: 17.9 µM
4T1 [7]
  Activity: Active
4T1 [8]
  Activity: ~56%
4T1 [9]
  Activity: Active
4T1 [10]
  inhibition in vivo at 200 µmol/kg: 56.3%
[11]
  Activity: Toxic
4T1 [12]
  Activity: 38.5%
[13]
  Activity: Toxic
4T1 [14]
  Activity: Active

Reference: ChEMBL document CHEMBL5625202, “Synthesis, characterization and anti-breast cancer activities of stachydrine derivatives” (Eur J Med Chem, 2023)
